Patent US12378250B2, “Tricyclic compound as IRAK4 inhibitor” (KOREA RESEARCH INSTITUTE OF CHEMICAL TECHNOLOGY, priority 2018, dated 2025)

Assays:
[1] = molecular target: T1, IRAK4 enzyme (Homo sapiens, UniProt Q9NWZ3); test: IRAK4 enzyme inhibition degree (bead-based kinase assay, peptide substrate BMKC-2, 100 μM ATP); type: biochemical; details: for inhibition at 1 µM: compound 1 μM
T1 sequence (Q9NWZ3 1-460): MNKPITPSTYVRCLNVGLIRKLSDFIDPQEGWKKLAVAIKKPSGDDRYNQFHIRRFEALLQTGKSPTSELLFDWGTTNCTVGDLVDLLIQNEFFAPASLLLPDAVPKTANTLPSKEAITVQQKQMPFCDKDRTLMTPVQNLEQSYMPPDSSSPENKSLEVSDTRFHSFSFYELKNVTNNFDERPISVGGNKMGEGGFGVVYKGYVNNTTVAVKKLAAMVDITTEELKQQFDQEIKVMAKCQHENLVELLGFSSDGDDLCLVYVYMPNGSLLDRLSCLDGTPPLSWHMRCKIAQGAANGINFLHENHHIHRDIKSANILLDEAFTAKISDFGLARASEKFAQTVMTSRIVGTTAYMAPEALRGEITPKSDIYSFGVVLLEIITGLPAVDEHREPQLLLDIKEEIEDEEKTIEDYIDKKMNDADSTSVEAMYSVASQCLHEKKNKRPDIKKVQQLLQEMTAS
Description: 2.5 μl of a compound diluted to 4-fold of a final concentration was put into a 384-well white plate (low volume). 2.5 μl of 0.4 ng/μl IRAK4 enzyme was added thereto, and the resulting mixture was totally reacted for 10 minutes. 5 μl of a mixed liquid of a 6 μM peptide substrate (BMKC-2) and 100 μM ATP was added thereto, the resulting mixture was reacted at room temperature for 60 minutes, then 2.5 μl of 10 mM EDTA was added thereto, and the resulting mixture was reacted again for 10 minutes. 40 nM anti-phospho Thr antibody was aliquoted to 2.5 μl each, 5 μl of a mixed solution of a 160 μl/ml acceptor bead and a donor bead was added thereto, and then the resulting mixture was reacted at room temperature for 60 minutes. Fluorescence signals were measured using a bead experimental apparatus (Fusion alpha-FP Microplate Reader, Perkin Elmer Inc.).
From the detected signal, an activity inhibition rate [% inhibition degree=(the average value of a compound−the average value of a negative control)/(the average value of a positive control−the average value of a negative control)×100] was calculated, and is shown in [Table 1]. Further, a % inhibition degree of the compound at each concentration was obtained, and then a 50% inhibition concentration (IC50 value) was analyzed by a non-linear regression analysis.

[2] = test system: TNF-α secretion, peripheral blood mononuclear cells (PBMCs); test: Suppression of TNF-α secretion in LPS-treated PBMCs (ELISA); type: cell-based; details: PBMC, 100 ng/ml LPS, 24 hours, read-out: TNF-α, % inhibition degree
Description: (§1) Peripheral blood mononuclear cells (PBMCs) isolated from whole blood were distributed in a 96-well plate. TNF-α was aliquoted at a density of 1×10^5 cells/well, IFN-α was aliquoted at a density of 2×10^5 cells/well, and TNF-α and IFN-α were treated with a compound diluted to 4-fold of a final concentration and totally cultured for 30 minutes. TNF-α was treated with 100 ng/ml lipopolysaccharide (LPS), IFN-α was treated with 500 nM ODN2216 (CpGTLR9 stimulator), and TNF-α and IFN-α were further cultured for 24 hours and 72 hours, respectively. An enzyme-linked immunosorbent assay (ELISA) was performed on TNF-α and IFN-α using an ELISA kit manufactured by BD Biosciences and an ELISA kit manufactured by PBL Assay Science, Inc., respectively. A cell supernatant and a standard drug were put into the ELISA plates and reacted for 2 hours. The plates were washed and a measurement antibody and streptavidin-HRP were sequentially added thereto. After the plates were washed, a TMB substrate was added thereto and reacted in a dark place. The reaction was stopped by adding a stop solution thereto, and the absorbance at 450 nm and 570 nm was measured using an absorber (OPTIMax tunable microplate reader, molecular devices). The experimental results are shown in [Table 2].

[3] = test system: IFN-α secretion, peripheral blood mononuclear cells (PBMCs); test: Suppression of IFN-α secretion in ODN2216-treated PBMCs (ELISA); type: cell-based; details: PBMC, 500 nM ODN2216, 72 hours, read-out: IFN-α, % inhibition degree
Description: as §1

[4] = test system: NF-κB promoter, THP1-Lucia™ NF-κB cell line; test: NF-κB promoter inhibition, THP1-Lucia NF-κB cell line; type: cell-based; details: 100 ng/ml LPS, 24 hours, read-out: NF-κB, % inhibition degree
Description: (§2) A THP1-Lucia™ NF-κB cell line (Invivogen) was used in an NF-κB inhibition experiment, and a THP1-Lucia™ ISG cell line was used in an ISG inhibition experiment. In the NF-κB inhibition experiment, cells were planted at a density of 1×10^4 cells/well in a 96-well plate, and in the ISG inhibition experiment, cells were planted at a density of 2×10^4 cells/well in a 96-well plate. The cells were treated with a compound diluted to 4-fold of a final concentration, and totally cultured for 30 minutes. NF-κB was treated with 100 ng/ml lipopolysaccharide (LPS), ISG was treated with a stimulator of 1 μg/ml Poly(dA:dT)/LyoVec, and NF-κB and ISG were cultured for 24 hours. 10 μl of a cell supernatant was taken and transferred to a 96-well plate. 50 μl of a Quanti-luc solution was aliquoted using an automatic aliquoter of a measurer (Envision Multilabel Plate Reader, Perkin Elmer, Inc.), and light emission signals were measured.

[5] = test system: ISG promoter, THP1-Lucia™ ISG cell line; test: ISG promoter inhibition, THP1-Lucia ISG cell line; type: cell-based; details: 1 μg/ml Poly(dA:dT)/LyoVec, 24 hours, read-out: ISG, % inhibition degree
Description: as §2

Row | SMILES | IC50 [1] | inhibition at 1 µM [1] | inhibition at 0.1 µM [2] | inhibition at 1 µM [2] | inhibition at 0.1 µM [3] | inhibition at 1 µM [3] | inhibition at 0.1 µM [4] | inhibition at 1 µM [4] | inhibition at 0.1 µM [5] | inhibition at 1 µM [5]
1 | CCOC(=O)c1ccc2[nH]c3ncnc(N[C@H]4CC[C@H](N(C)C)CC4)c3c2c1 [Compound 5bb, ethyl 4-((trans-4-(dimethylamino)cyclohexyl)amino)-9H-pyrimido[4,5-b]indole-6-carboxylate] | 21 nM | 83% | 7.3% | 47% | 27.3% | 90% | 58% | 92% | 43% | 73%
2 | c1cc(-c2ccc3[nH]c4ncnc(N[C@H]5CC[C@H](N6CCOCC6)CC5)c4c3c2)ccn1 [Compound 6aab, N-(trans-4-morpholinocyclohexyl)-6-(pyridin-4-yl)-9H-pyrimido[4,5-b]indole-4-amine] | 18.4 nM | 100% | 44% | 114% | 31% | 94% | 8% | 61% | 11% | 54%
3 | c1ncc(-c2ccc3[nH]c4ncnc(N[C@H]5CC[C@H](N6CCOCC6)CC5)c4c3c2)cn1 [Compound 6aac, N-(trans-4-morpholinocyclohexyl)-6-(pyrimidin-5-yl)-9H-pyrimido[4,5-b]indole-4-amine] | 12.6 nM | 100% | 24% | 86% | 21% | 84% | 17% | 64% | 7% | 45%
4 | CN(C)CCOc1cncc(-c2ccc3[nH]c4ncnc(N[C@H]5CC[C@H](N6CCOCC6)CC5)c4c3c2)c1 [Compound 6aag, 6-(5-(2-(dimethylamino)ethoxy)pyridin-3-yl)-N-(trans-4-morpholinocyclohexyl)-9H-pyrimido[4,5-b]indole-4-amine] | 31 nM | 82% | 16.7% | 51.4% | 6.4% | 89.5% | 12% | 37% | 20% | 52%
5 | COc1ccc(-c2ccc3[nH]c4ncnc(N[C@H]5CC[C@H](N6CCOCC6)CC5)c4c3c2)cn1 [Compound 6aah, 6-(6-methoxypyridin-3-yl)-N-(trans-4-morpholinocyclohexyl)-9H-pyrimido[4,5-b]indole-4-amine] | 40 nM | 100% | 16% | 67% | 15% | 79% | 19% | 63% | 10% | 47%
6 | O=[N+]([O-])c1cccc(-c2ccc3[nH]c4ncnc(N[C@H]5CC[C@H](N6CCOCC6)CC5)c4c3c2)c1 [Compound 6aai, N-(trans-4-morpholinocyclohexyl)-6-(3-nitrophenyl)-9H-pyrimido[4,5-b]indole-4-amine] | 67.6 nM | 98% | 13% | 62% | 32% | 87% | 6% | 36% | 9% | 41%

Continued by falling IC50 [1], values first:

Row | IC50 [1] | inhibition at 1 µM [1] | SMILES | inhibition at 0.1 µM [2] | inhibition at 1 µM [2] | inhibition at 0.1 µM [3] | inhibition at 1 µM [3] | inhibition at 0.1 µM [4] | inhibition at 1 µM [4] | inhibition at 0.1 µM [5] | inhibition at 1 µM [5]
7 | 159 nM | 99% | COc1cccc(-c2ccc3[nH]c4ncnc(N[C@H]5CC[C@H](N6CCOCC6)CC5)c4c3c2)c1 [Compound 6aaj, 6-(3-methoxyphenyl)-N-(trans-4-morpholinocyclohexyl)-9H-pyrimido[4,5-b]indole-4-amine] | 3.2% | 30% | 6.4% | 56% | < 1% | 33% | 14% | 20%
8 | 128 nM | 99% | COC(=O)c1ccc2c(c1)[nH]c1ncnc(N[C@H]3CC[C@H](N4CCOCC4)CC3)c12 [Compound 5da, methyl 4-((trans-4-morpholinocyclohexyl)amino)-9H-pyrimido[4,5-b]indole-7-carboxylate] | 10% | 40% | 10% | 40% | 5% | 30% | 1% | 20%
9 | 29 nM | 83% | CCOC(=O)c1ccc2[nH]c3ncnc(N[C@H]4CC[C@H](N5CCOCC5)CC4)c3c2c1 [Compound 5ba, ethyl 4-((trans-4-morpholinocyclohexyl)amino)-9H-pyrimido[4,5-b]indole-6-carboxylate] | 31.7% | 41.3% | 27% | 73.9% | 48% | 89% | 37% | 78%
10 | 28 nM | 100% | Cn1cc(-c2ccc3[nH]c4ncnc(N[C@H]5CC[C@H](N6CCOCC6)CC5)c4c3c2)cn1 [Compound 6aaa, 6-(1-methyl-1H-pyrazol-4-yl)-N-(trans-4-morpholinocyclohexyl)-9H-pyrimido[4,5-b]indole-4-amine] | 10.5% | 42% | 20% | 21% | 23% | 71% | 17% | 55%
11 | 2 nM | 100% | Oc1cncc(-c2ccc3[nH]c4ncnc(N[C@H]5CC[C@H](N6CCOCC6)CC5)c4c3c2)c1 [Compound 6aae, 5-(4-((trans-4-morpholinocyclohexyl)amino)-9H-pyrimido[4,5-b]indol-6-yl)pyridine-3-ol] | 12% | 53% | 48% | 92% | < 1% | 40% | 4% | 29%
